Literature values, collected in patent US6838050B1, “Methods and devices for providing anti-infective activity to a medical device” (Oxibio, Inc., priority 1999, dated 2005).

Tests used:
[1] = human

II [free iodine, elemental iodine]
upper limit of solubility: ~320 ppm | upper daily threshold for total iodine exposure posing no significant health threat [1]: ≤ 1000 micrograms per day | free iodine level at which effective microbial killing occurs (bacteria and viruses): not less than 0.1 ppm | level in solution sufficient to kill bacteria and viruses (bacteria and viruses): A few parts per million
